Data as given in ChEMBL document CHEMBL1287745, “AdoHcy hydrolase of Trichomonas vaginalis: studies of the effects of 5'-modified adenosine analogues and related 6-N-cyclopropyl derivatives” (Bioorg Med Chem Lett, 2010).
Converted amounts (≈) assume the structure as drawn. “And” between values parts separate entries of the source, which are not always exact repeats. Equal values may be shown once.

Columns and labels:
[1] = test system: Trichomonas vaginalis; experiment: […] activity against Trichomonas vaginalis T1; format: functional, organism-based
[2] = test system: Trichomonas vaginalis; experiment: Antiparasitic activity against Trichomonas vaginalis T1 at […] after 24 hrs by hemocytometric analysis; format: functional
[3] = test system: Trypanosoma; experiment: Antimicrobial activity against Trypanosoma; format: functional, organism-based
[4] = Trichomonas vaginalis, T1, read-out: IC50

SMILES	IC50 [1, 4]	growth inhibition (GI) [2] [%]	other results
Nc1ncnc2c1ncn2[C@@H]1O[C@H](/C=C/I)[C@@H](O)[C@H]1O	60 µM and 19 µg/mL	85	–
Cc1ncc([N+](=O)[O-])n1CCO [METRONIDAZOLE]	0.12 µg/mL (≈ 0.701 µM)	–	–
Nc1ncnc2c1ncn2[C@@H]1O[C@H](/C=C/CCCC(=O)O)[C@@H](O)[C@H]1O	–	22	–
Nc1ncnc2c1ncn2[C@@H]1O[C@H](/C=C\I)[C@@H](O)[C@H]1O	76 µM and 24 µg/mL	81	–
Nc1ncnc2c1ncn2[C@@H]1O[C@H](C=NO)[C@@H](O)[C@H]1O	40 µM and 11 µg/mL	93	–
COC(=O)[C@H]1O[C@@H](n2cnc3c(N)ncnc32)[C@H](O)[C@@H]1O	–	4	–
COC(=O)C(O)CCn1cnc2c(N)ncnc21 (stereo not given)	–	16	–
Nc1ncnc2c1ncn2CCC(O)CO (stereo not given)	–	11	–
O[C@@H]1[C@H](O)[C@@H](C=CI)O[C@H]1n1cnc2c(NC3CC3)ncnc21	–	24	IC50 ([3]; Trypanosoma, read-out: IC50): 12 µg/mL (≈ 28 µM); IC50 [1]: Not Active
O[C@@H]1[C@H](O)[C@@H](C=C(Br)Br)O[C@H]1n1cnc2c(NC3CC3)ncnc21	–	12	IC50 [3]: Not Active
O[C@@H]1[C@H](O)[C@@H](C=CF)O[C@H]1n1cnc2c(NC3CC3)ncnc21	–	10	IC50 ([3]; Trypanosoma, read-out: IC50): 19 µg/mL (≈ 59.1 µM)
Nc1ncnc2c1ncn2[C@@H]1C[C@H](C(=O)O)[C@@H](O)[C@H]1O	–	36	–
Nc1ncnc2c1ncn2[C@@H]1O[C@H](/C=C/C#CI)[C@@H](O)[C@H]1O	–	34	–
Nc1ncnc2c1ncn2[C@@H]1C[C@H](CO)[C@@H](O)[C@H]1O [ARISTEROMYCIN]	10 µM and 3 µg/mL	95	–
Nc1ncnc2c1ncn2[C@@H]1O[C@H](C(=O)O)[C@@H](O)[C@H]1O [5'-CARBOXY ADENOSINE]	–	17	–
ON=C[C@H]1O[C@@H](n2cnc3c(NC4CC4)ncnc32)[C@H](O)[C@@H]1O	–	41	IC50 [3]: Not Active
